Patent publication US9023865B2, “Compounds that are ERK inhibitors” (Merck Sharp & Dohme Corp., priority 2011, dated 2015)

Biological target: Active Human ERK2 (hERK2) (Homo sapiens (Human), UniProt P28482)
Test: Active Human ERK2 (hERK2) Activity Assay (IMAP-FP)
Assay type: biochemical
Conditions: phosphorylated active hERK2, 30 μM ATP; average; read-out: ERK 2 Human average IC50
How it was run: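 Reaction contains 0.5 nM activated hERK2, 900 nM unlabeled plus 80 nM labeled peptide and 30 μM ATP, run 60 min. Quenched with IMAP binding beads in buffer with 24 mM NaCl; fluorescence polarization read after 60 min binding equilibration.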

Chain of Active Human ERK2 (hERK2) (P28482 whole entry): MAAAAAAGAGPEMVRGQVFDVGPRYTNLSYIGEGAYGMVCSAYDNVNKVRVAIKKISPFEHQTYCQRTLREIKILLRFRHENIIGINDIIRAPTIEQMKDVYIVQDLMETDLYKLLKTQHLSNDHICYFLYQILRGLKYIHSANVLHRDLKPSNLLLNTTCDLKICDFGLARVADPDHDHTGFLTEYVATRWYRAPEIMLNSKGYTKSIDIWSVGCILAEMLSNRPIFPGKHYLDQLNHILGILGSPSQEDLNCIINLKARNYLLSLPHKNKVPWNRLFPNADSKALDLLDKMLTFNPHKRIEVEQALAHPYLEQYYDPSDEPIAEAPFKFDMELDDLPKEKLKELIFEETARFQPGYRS

| IC50 [nM] | Compound |
| --- | --- |
| 2.36 | CC(C)Oc1ccc(-c2n[nH]c3cc(NC(=O)N[C@H](C)c4ccc(F)cc4)ncc23)cn1 [Example 250] |
| 0.605 | Cc1cc(-c2n[nH]c3cc(NC(=O)NCc4ccccc4OC(F)(F)F)ncc23)ccn1 [Example 523] |
| 9.34 | C[C@@H](NC(=O)Nc1cc2[nH]nc(-c3ccc(F)cc3)c2cn1)c1ccc(F)c(Cl)c1 [Example 73, 1-[(1R)-1-(3-chloro-4-fluorophenyl)ethyl]-3-[3-(4-fluorophenyl)-1H-pyrazolo[4,3-c]pyridin-6-yl]urea] |
| 1.04 | Cc1cc(-c2n[nH]c3cc(NC(=O)NC(C)c4cccnc4)ncc23)ccn1 (stereo not drawn) [Example 49, 1-[3-(2-methylpyridin-4-yl)-1H-pyrazolo[4,3-c]pyridin-6-yl]-3-(1-pyridin-3-ylethyl)urea] |
| 11.7 | Cc1ccc(-c2n[nH]c3cc(NC(=O)N[C@H](C)c4ccc(F)cc4)ncc23)s1 [Example 248] |
| 4.57 | Cc1cc(-c2n[nH]c3cc(NC(=O)N[C@H](COCC(F)F)c4ccccc4)ncc23)no1 [Example 701] |
| 4.54 | CNC(=O)c1n[nH]c2cc(NC(=O)N[C@H](C)c3ccccc3)ncc12 [Example 137] |
| 0.257 | CSC[C@@H](NC(=O)Nc1cc2[nH]nc(-c3ccnc(C)c3)c2cn1)c1ccccc1 [Example 570] |
| 9.85 | C[C@@H](NC(=O)Nc1cc2[nH]nc(-c3ccc(N4CCCCC4)nc3)c2cn1)c1ccc(F)cc1 [Example 244] |
| 13.6 | C[C@@H](NC(=O)Nc1cc2[nH]nc(C(F)F)c2cn1)c1ccccc1 [Example 670] |
| 0.358 | O=C(Nc1cc2[nH]nc(-c3ccncc3)c2cn1)N[C@H](CO)c1ccccc1 [Example 546] |
| 2.55 | C[C@@H](NC(=O)Nc1cc2[nH]nc(C(=O)NCc3cccnn3)c2cn1)c1ccccc1 [Example 122] |
| 22.8 | CC(O)c1n[nH]c2cc(NC(=O)N[C@H](C)c3ccccc3)ncc12 (stereo partly drawn) [Example 618] |
| 567 | Cc1cc(-c2n[nH]c3cc(NC(=O)N[C@H](C)c4ccc(C(F)(F)F)nc4)ncc23)ccn1 [Example 527] |
| 1.8 | Cc1cncc(-c2n[nH]c3cc(NC(=O)N[C@H](C)c4ccc(F)cc4)ncc23)c1 [Example 308] |
| 0.26 | Cc1cc(-c2n[nH]c3cc(NC(=O)N[C@@H](c4ccccc4)[C@H]4CCCO4)ncc23)ccn1 [Example 553] |
| 0.29 | Cc1cc(-c2n[nH]c3cc(NC(=O)N[C@H](C)c4ccccc4)ncc23)cc(C)n1 [Example 31, 1-[3-(2,6-dimethylpyridin-4-yl)-1H-pyrazolo[4,3-c]pyridin-6-yl]-3-[(1R)-1-phenylethyl]urea] |
| 1.07 | COC(=O)C1CC1c1n[nH]c2cc(NC(=O)N[C@H](C)c3ccccc3)ncc12 (stereo partly drawn) [Example 644] |
| 13.2 | C[C@@H](NC(=O)Nc1cc2[nH]nc(-c3ccc(OC(F)(F)F)cc3)c2cn1)c1ccccc1 [Example 674] |
| 7.71 | C[C@@H](NC(=O)Nc1cc2[nH]nc(C3CC3(F)F)c2cn1)c1ccccc1 (stereo partly drawn) [Example 164] |
| 28 | COCCn1cc(-c2n[nH]c3cc(NC(=O)N[C@H](C)c4ccccc4)ncc23)cn1 [Example 289] |
| 0.262 | Cc1cc(-c2n[nH]c3cc(NC(=O)N[C@@H](c4ccccc4)[C@@H]4CCCO4)ncc23)ccn1 [Example 554] |

Second part, the compound before the results:

| Compound | IC50 [nM] |
| --- | --- |
| Cc1cc(-c2n[nH]c3cc(NC(=O)NCC(=O)N(C)C)ncc23)ccn1 [Example 187] | 52.3 |
| C[C@@H](NC(=O)Nc1cc2[nH]nc(C3CC3)c2cn1)c1ccc(F)c(Cl)c1 [Example 82, 1-[(1R)-1-(3-chloro-4-fluorophenyl)ethyl]-3-(3-cyclopropyl-1H-pyrazolo[4,3-c]pyridin-6-yl)urea] | 10.8 |
| COC[C@@H](NC(=O)Nc1ncc2c(-c3ccnc(C)c3)n[nH]c2c1F)c1ccccc1 [Example 542] | 0.269 |
| Cc1cc(-c2n[nH]c3cc(NC(=O)NC4CCCOC4)ncc23)ccn1 (stereo not drawn) [Example 468] | 8.62 |
| Cc1cc(-c2n[nH]c3cc(NC(=O)NC4CCc5cc(Cl)ccc54)ncc23)ccn1 (stereo not drawn) [Example 283] | 86 |
| Cc1cc(-c2n[nH]c3cc(NC(=O)N[C@@H]4CCCc5cccnc54)ncc23)ccn1 [Example 262, 1-[3-(2-methylpyridin-4-yl)-1H-pyrazolo[4,3-c]pyridin-6-yl]-3-[(8R)-5,6,7,8-tetrahydroquinolin-8-yl]urea] | 1.25 |
| O=C(Nc1cc2[nH]nc(C3CC3)c2cn1)N[C@@H]1CCOc2ccccc21 [Example 154] | 70 |
| Cc1cc(-c2n[nH]c3cc(NC(=O)NCc4cccc(C)n4)ncc23)ccn1 [Example 315] | 1.93 |
| C[C@@H](NC(=O)Nc1cc2[nH]nc(C(=O)N[C@@H]3CCN(O)C3=O)c2cn1)c1ccccc1 [Example 134] | 103 |
| COC[C@@H](NC(=O)Nc1cc2[nH]nc(C3CC3)c2cn1)c1cc(F)ccn1 [Example 168] | 117 |
| Cc1cc(-c2n[nH]c3cc(NC(=O)NCc4ncc(F)cc4Cl)ncc23)ccn1 [Example 517] | 0.761 |
| Cc1cc(-c2n[nH]c3cc(NC(=O)NCC4CCC4)ncc23)ccn1 [Example 574] | 1.41 |
| Cc1cc(-c2n[nH]c3cc(NC(=O)NC4(c5ccccc5)CC4)ncc23)ccn1 [Example 350] | 10.6 |
| Cc1cc(-c2n[nH]c3cc(NC(=O)NCCC4CCOC4)ncc23)ccn1 (stereo not drawn) [Example 387] | 4.42 |
| COc1ccc(CNC(=O)Nc2cc3[nH]nc(C4CC4)c3cn2)cc1 [Example 155] | 60.1 |
| Cc1cc(-c2n[nH]c3cc(NC(=O)NC4CCCOc5ccccc54)ncc23)ccn1 (stereo not drawn) [Example 274] | 0.494 |
| O=C(NCCC1CCOC1)Nc1cc2[nH]nc(-c3ccc(F)cc3)c2cn1 (stereo not drawn) [Example 219] | 1.68 |
| C[C@@H](NC(=O)Nc1cc2[nH]nc(C(=O)N3CC(=O)N(C)C3)c2cn1)c1ccccc1 [Example 120] | 60.4 |
| Cc1cc(-c2n[nH]c3cc(NC(=O)NCc4cccc(NS(C)(=O)=O)c4)ncc23)ccn1 [Example 366] | 0.34 |
| Cc1cc(-c2n[nH]c3cc(NC(=O)NCc4c(F)cccc4Cl)ncc23)ccn1 [Example 440] | 0.469 |
| Cc1cc(-c2n[nH]c3cc(NC(=O)N[C@H]4CCOc5cc(F)ccc54)ncc23)ccn1 [Example 276, 1-[(4S)-7-fluoro-3,4-dihydro-2H-chromen-4-yl]-3-[3-(2-methylpyridin-4-yl)-1H-pyrazolo[4,3-c]pyridin-6-yl]urea] | 14.7 |
| Cc1cc(-c2n[nH]c3cc(NC(=O)NC(C)c4ccc(F)c(F)c4)ncc23)ccn1 (stereo not drawn) [Example 338] | 0.998 |
| Cc1cc(-c2n[nH]c3cc(NC(=O)N[C@H]4CN(C)C[C@@H]4c4ccc(F)nc4)ncc23)ccn1 [Example 179] | 1.45 |
| CCO[C@H]1CN(C)C[C@@H]1NC(=O)Nc1cc2[nH]nc(-c3ccc(F)cc3)c2cn1 [Example 319] | 0.521 |

| Compound | IC50 [nM] |
| --- | --- |
| C[C@@H](NC(=O)Nc1cc2[nH]nc(C(F)F)c2cn1)c1ccc(F)cc1 [Example 669] | 21.6 |
| Cc1cc(-c2n[nH]c3cc(NC(=O)NCc4cncc(F)c4)ncc23)ccn1 [Example 51, 1-[(5-fluoropyridin-3-yl)methyl]-3-[3-(2-methylpyridin-4-yl)-1H-pyrazolo[4,3-c]pyridin-6-yl]urea] | 1 |
| COCCNC(=O)Nc1cc2[nH]nc(-c3ccc4cn(C)nc4c3)c2cn1 [Example 625] | 13.6 |
| COCCNC(=O)Nc1cc2[nH]nc(-c3ccc(OC(C)C)nc3)c2cn1 [Example 630] | 2.12 |
| Cc1cc(-c2n[nH]c3cc(NC(=O)NCc4ncnn4C)ncc23)ccn1 [Example 424] | 2.55 |
| Cc1cc(-c2n[nH]c3cc(NC(=O)NCc4cn5cccc(C)c5n4)ncc23)ccn1 [Example 393] | 13.8 |
| Cc1cc(-c2n[nH]c3cc(NC(=O)N[C@H]4CN(C)C[C@@H]4c4ccccc4F)ncc23)ccn1 [Example 185] | 37.3 |
| Cc1cc(-c2n[nH]c3cc(NC(=O)N[C@@H]4CN(CC(F)(F)F)C[C@H]4c4ccccc4)ncc23)ccn1 [Example 330] | 3.06 |
| Cc1cc(-c2n[nH]c3cc(NC(=O)NCc4cccnn4)ncc23)ccn1 [Example 446] | 3.3 |
| Cc1cc(-c2n[nH]c3cc(NC(=O)NCc4ccccc4F)ncc23)ccn1 [Example 442] | 0.815 |
| O=C(NCc1ncco1)Nc1cc2[nH]nc(-c3ccc(F)cc3)c2cn1 [Example 221] | 4.49 |
| COC[C@@H](NC(=O)Nc1cc2[nH]nc(-c3ccnc(N4CCNCC4)c3)c2cn1)c1ccc(F)cc1 [Example 306] | 0.81 |
| COCC(O)CNC(=O)c1n[nH]c2cc(NC(=O)N[C@H](C)c3ccccc3)ncc12 (stereo partly drawn) [Example 133] | 11 |
| Cc1cc(-c2n[nH]c3cc(NC(=O)NCC(c4ccccn4)N4CCOCC4)ncc23)ccn1 (stereo not drawn) [Example 384] | 24.7 |
| C[C@@H](NC(=O)Nc1cc2[nH]nc(C3(C)CC3(F)F)c2cn1)c1ccc(F)cc1 (stereo partly drawn) [Example 159, 1-[3-(2,2-difluoro-1-methylcyclopropyl)-1H-pyrazolo[4,3-c]pyridin-6-yl]-3-[(1R)-1-(4-fluorophenyl)ethyl]urea] | 610 |
| Cc1cc(-c2n[nH]c3cc(NC(=O)NCC4COc5ccccc5O4)ncc23)ccn1 (stereo not drawn) [Example 459] | 2.74 |
| Cc1cc(-c2n[nH]c3cc(NC(=O)NCCOC(C)C)ncc23)ccn1 [Example 451] | 2.14 |
| COc1ncc(-c2n[nH]c3cc(NC(=O)N[C@@H]4CCCOc5ccccc54)ncc23)cn1 [Example 312] | 0.751 |
| Cc1cc(-c2n[nH]c3cc(NC(=O)NCc4cc[nH]n4)ncc23)ccn1 [Example 419] | 2.72 |
| Cc1cc(-c2n[nH]c3cc(NC(=O)NCc4ccno4)ncc23)ccn1 [Example 435] | 1.08 |
| Cc1cc(-c2n[nH]c3cc(NC(=O)NCC4CNC(=O)O4)ncc23)ccn1 (stereo not drawn) [Example 466] | 2.81 |
| CO[C@H](C)CNC(=O)Nc1cc2[nH]nc(-c3ccnc(C)c3)c2cn1 [Example 598] | 1.55 |
| Cc1cc(-c2n[nH]c3cc(NC(=O)NCC(O)C(F)F)ncc23)ccn1 (stereo not drawn) [Example 189] | 10.3 |

Same assay, conditions: read-out: AERK2 IC50 (Active human ERK2 Activity Assay)

| IC50 [nM] | Compound |
| --- | --- |
| 0.2 to 1.7 | Cc1cc(-c2n[nH]c3cc(NC(=O)NC(C)c4cccnc4)ncc23)ccn1 (stereo not drawn) [Example 49, 1-[3-(2-methylpyridin-4-yl)-1H-pyrazolo[4,3-c]pyridin-6-yl]-3-(1-pyridin-3-ylethyl)urea] |
| 0.2 to 1.7 | Cc1cc(-c2n[nH]c3cc(NC(=O)NCc4cncc(F)c4)ncc23)ccn1 [Example 51, 1-[(5-fluoropyridin-3-yl)methyl]-3-[3-(2-methylpyridin-4-yl)-1H-pyrazolo[4,3-c]pyridin-6-yl]urea] |
| 0.2 to 1.7 | Cc1cc(-c2n[nH]c3cc(NC(=O)N[C@H](C)c4ccccc4)ncc23)cc(C)n1 [Example 31, 1-[3-(2,6-dimethylpyridin-4-yl)-1H-pyrazolo[4,3-c]pyridin-6-yl]-3-[(1R)-1-phenylethyl]urea] |
